In US10626077B2, “Salvianolic acid compound T, preparation method therefor, and use thereof” (TASLY PHARMACEUTICAL GROUP CO., LTD., priority 2013, dated 2020):

Tested on: mice pulmonary fibrosis induced by bleomycin
Assay: Anti-pulmonary fibrosis experiment in mice induced by bleomycin
Format: in vivo, Kunming mice
Settings: 3 weeks
Method: Dividing the 40 mice into 4 groups: □ normal control group, given nasal dripping of normal saline, drenched with normal saline; □ model control group:given nasal dripping of bleomycin, drenched with normal saline; □(S)-salvianolic acid T group (16 mg/kg): given nasal dripping of bleomycin, drenched with (S)-salvianolic acid T solution; □(R)-salvianolic acid T group (16 mg/kg): given nasal dripping of bleomycin, drenched with (R)-salvianolic acid T solution; 10 mice in each group.
On the first day of the experiment, the mice were anesthetized with chloral hydrate, each mouse was given disposable nasal dripping of 50 μg bleomycin to establish the pulmonary fibrosis model. On the second day of the experiment, two treatment groups were drenched with (S)/(R)-salvianolic acid T, the model group and the normal group were drenched with equal volume of normal saline, once each day, 3 consecutive weeks. On the 21th day of the experiment, serum was separated from the blood collected from the orbital vein to detect TGF-β1, the mice were killed to take lungs, ground with double distilled water (the ratio of lungs and double distilled water was 1:5 (w/v)) into tissue homogenate, centrifuged to detect the MDA, superoxide dismutase (SOD), catalase (CAT), peroxidase (POD) in the tissues.

[1] = 16 mg/kg, lung tissue homogenate

In the case of O=C(/C=C/c1ccc(O)c(O)c1/C(=C\c1ccc(O)c(O)c1)C(=O)O)O[C@H](Cc1ccc(O)c(O)c1)C(=O)O [(R)-salvianolic acid T], the “Serum TGF-β1” value (16 mg/kg drenched once each day, day 21) was 254 ± 29 ng/L, the CAT [1] was 23.1 ± 2.9 U/g and the MDA [1] was 311 ± 29 µg/g. For the same compound, the POD [1] was 16.4 ± 1.9 U/g, the SOD [1] was 52.2 ± 5.1 U/g and the “Tissue TGF-β1” value [1] was 562 ± 69 pg/g.
